Each structure is given as a SMILES string. Counter-ions that a name gives are not always drawn.

One assay addresses MLLT1 (Homo sapiens, UniProt Q03111). The experiment in a line: biochemical. The note with it: MLLT1 assay IC50 (nM), HTRF, 6His tagged MLLT1, biotinylated H3K9cro peptide; compound 20 μM to 20 nM, 11 data points in duplicate. In general terms: In TR-FRET formats the signal depends on donor and acceptor labels being close together.
Another assay deals with MLLT3 (Homo sapiens, UniProt P42568). The experiment in a line: HTRF IC50 determination assay, MLLT3 / H3K9cro peptide displacement. The conditions noted are these: MLLT3 assay IC50 (nM), 6His tagged MLLT3, biotinylated H3K9cro peptide, compound 20 μM to 20 nM, 11 data points in duplicate.
Chain of MLLT3 (P42568 whole entry): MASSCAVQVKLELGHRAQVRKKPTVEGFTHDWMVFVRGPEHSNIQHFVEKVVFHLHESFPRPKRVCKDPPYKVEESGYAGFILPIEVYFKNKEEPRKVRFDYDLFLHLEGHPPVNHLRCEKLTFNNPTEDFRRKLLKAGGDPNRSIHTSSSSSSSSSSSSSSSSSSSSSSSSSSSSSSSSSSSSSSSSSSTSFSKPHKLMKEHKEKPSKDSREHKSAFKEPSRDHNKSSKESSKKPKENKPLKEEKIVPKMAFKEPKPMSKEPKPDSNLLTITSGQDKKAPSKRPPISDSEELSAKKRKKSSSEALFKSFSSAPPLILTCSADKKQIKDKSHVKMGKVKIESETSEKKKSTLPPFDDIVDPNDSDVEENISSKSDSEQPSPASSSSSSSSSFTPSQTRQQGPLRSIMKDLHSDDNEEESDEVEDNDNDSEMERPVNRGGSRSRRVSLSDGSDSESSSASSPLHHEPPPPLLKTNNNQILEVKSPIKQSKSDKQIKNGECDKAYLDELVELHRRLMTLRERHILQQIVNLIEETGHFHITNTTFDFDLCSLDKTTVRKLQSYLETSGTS

Chain of MLLT1 (Q03111 whole entry): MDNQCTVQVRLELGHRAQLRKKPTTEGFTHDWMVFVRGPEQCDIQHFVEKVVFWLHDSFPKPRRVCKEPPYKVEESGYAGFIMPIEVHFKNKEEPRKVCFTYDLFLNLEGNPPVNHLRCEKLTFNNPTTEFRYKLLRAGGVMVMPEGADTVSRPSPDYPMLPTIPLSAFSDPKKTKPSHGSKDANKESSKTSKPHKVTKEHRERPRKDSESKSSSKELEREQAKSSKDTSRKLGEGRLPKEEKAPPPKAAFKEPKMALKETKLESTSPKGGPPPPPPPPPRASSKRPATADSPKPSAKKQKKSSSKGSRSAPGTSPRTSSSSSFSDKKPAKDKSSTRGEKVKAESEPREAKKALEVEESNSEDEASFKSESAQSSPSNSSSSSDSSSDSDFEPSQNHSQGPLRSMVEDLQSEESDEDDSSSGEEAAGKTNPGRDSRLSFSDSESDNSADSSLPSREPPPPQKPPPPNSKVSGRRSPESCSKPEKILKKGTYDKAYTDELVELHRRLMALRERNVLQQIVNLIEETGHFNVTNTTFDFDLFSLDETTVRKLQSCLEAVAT

Turning to `COc1ccc2c(C(=O)Nc3ccc4nc(C5CCCN5C)cn4c3)c[nH]c2c1` (racemic) [Example 39, rac-6-methoxy-N-[2-(1-methylpyrrolidin-2-yl)imidazo[1,2-a]pyridin-6-yl]-1H-indole-3-carboxamide], the IC50 – broadly, the concentration needed to halve the response being measured – against MLLT1 is 1500 to 20000 nM; at MLLT3 it was more than 20000 nM.

`CN1CCCC1c1cn2cc(NC(=O)c3ccc(-n4cccn4)cc3)ccc2n1` (racemic) [Example 40, rac-N-[2-(1-methylpyrrolidin-2-yl)imidazo[1,2-a]pyridin-6-yl]-4-(1H-pyrazol-1-yl)benzamide]: the IC50 is 150 to 1500 nM on MLLT1 and 1500 to 20000 nM on MLLT3.

Regarding `CN1CCCC1c1cn2cc(NC(=O)c3ccc(Cn4cccn4)cc3)ccc2n1` (racemic) [Example 42, rac-N-[2-(1-methylpyrrolidin-2-yl)imidazo[1,2-a]pyridin-6-yl]-4-[(1H-pyrazol-1-yl)methyl]benzamide], the IC50 on MLLT1 lay in the range of 150 to 1500 nM; at MLLT3 it was 1500 to 20000 nM.

Consider `CN1CCCC1c1cn2cc(NC(=O)c3cccc(-n4cccn4)c3)ccc2n1` (racemic) [Example 43, rac-N-[2-(1-methylpyrrolidin-2-yl)imidazo[1,2-a]pyridin-6-yl]-3-(1H-pyrazol-1-yl)benzamide], for which the results for the IC50 at MLLT1 and on MLLT3 were 150 to 1500 nM and 1500 to 20000 nM, respectively.

Regarding `Cc1c(C(=O)Nc2ccc3nc(C4CCCN4C)cn3c2)sc2nc[nH]c(=O)c12` (racemic) [Example 44, rac-5-methyl-N-[2-(1-methylpyrrolidin-2-yl)imidazo[1,2-a]pyridin-6-yl]-4-oxo-3H,4H-thieno[2,3-d]pyrimidine-6-carboxamide], the IC50 against MLLT1 and on MLLT3 was 1500 to 20000 nM each time.

As for `CN1CCCC1c1cn2cc(NC(=O)c3ccc4c(c3)nnn4C3CCCCC3)ccc2n1` (racemic) [Example 45, rac-1-cyclohexyl-N-[2-(1-methylpyrrolidin-2-yl)imidazo[1,2-a]pyridin-6-yl]-1H-1,2,3-benzotriazole-5-carboxamide], the half-maximal inhibitory concentration (IC50) at MLLT1 and on MLLT3 was 150 to 1500 nM throughout.

On to `CN1CCCC1c1cn2cc(NC(=O)c3cnc(-c4ccccc4)o3)ccc2n1` (racemic) [Example 46, rac-N-[2-(1-methylpyrrolidin-2-yl)imidazo[1,2-a]pyridin-6-yl]-2-phenyl-1,3-oxazole-5-carboxamide], for which the half-inhibitory concentration (IC50) against MLLT1 and at MLLT3 was 1500 to 20000 nM each time.

Regarding `CN1CCCC1c1cn2cc(NC(=O)c3ccc4cncnc4c3)ccc2n1` (racemic) [Example 47, rac-N-[2-(1-methylpyrrolidin-2-yl)imidazo[1,2-a]pyridin-6-yl]quinazoline-7-carboxamide], the results for the IC50 on MLLT1 and on MLLT3 were 150 to 1500 nM and 1500 to 20000 nM, respectively.

For `CN1CCCC1c1cn2cc(NC(=O)c3ccc4c(c3)c(C3CCCC3)nn4C)ccc2n1` (racemic) [Example 48, rac-3-cyclopentyl-1-methyl-N-[2-(1-methylpyrrolidin-2-yl)imidazo[1,2-a]pyridin-6-yl]-1H-indazole-5-carboxamide], the half-maximal inhibitory concentration (IC50) against MLLT1 and at MLLT3 was 150 to 1500 nM in each case.

For the compound `COCCc1nn(C)c2ccc(C(=O)Nc3ccc4nc(C5CCCN5C)cn4c3)cc12` (racemic) [Example 49, rac-3-(2-methoxyethyl)-1-methyl-N-[2-(1-methylpyrrolidin-2-yl)imidazo[1,2-a]pyridin-6-yl]-1 H-indazole-5-carboxamide], the IC50 at MLLT1 and on MLLT3 was 150 to 1500 nM each time.

`Cc1noc2nc(C(=O)Nc3ccc4nc(C5CCCN5C)cn4c3)ccc12` (racemic) [Example 50, rac-3-methyl-N-[2-(1-methylpyrrolidin-2-yl)imidazo[1,2-a]pyridin-6-yl]-[1,2]oxazolo[5,4-b]pyridine-6-carboxamide]: the IC50 against MLLT1 and at MLLT3 was 1500 to 20000 nM throughout.

For the compound `CN1CCCC1c1cn2cc(NC(=O)c3ccc(-c4ncon4)cc3)ccc2n1` (racemic) [Example 51, rac-N-[2-(1-methylpyrrolidin-2-yl)imidazo[1,2-a]pyridin-6-yl]-4-(1,2,4-oxadiazol-3-yl)benzamide], the IC50 lay in the range of 150 to 1500 nM against MLLT1 and 1500 to 20000 nM at MLLT3.

With `CN1CCCC1c1cn2cc(NC(=O)c3ccc4c(cnn4C)c3Cl)ccc2n1` (racemic) [Example 52, rac-4-chloro-1-methyl-N-[2-(1-methylpyrrolidin-2-yl)imidazo[1,2-a]pyridin-6-yl]-1H-indazole-5-carboxamide], the IC50 against MLLT1 is 1500 to 20000 nM; on MLLT3, more than 20000 nM.

With `CN1CCCC1c1cn2cc(NC(=O)c3ccc4[nH]ccc4c3F)ccc2n1` (racemic) [Example 53, rac-4-fluoro-N-[2-(1-methylpyrrolidin-2-yl)imidazo[1,2-a]pyridin-6-yl]-1H-indole-5-carboxamide], the IC50 on MLLT1 and on MLLT3 was 150 to 1500 nM each time.

As for `CN1CCCC1c1cn2cc(NC(=O)c3cc4ccncc4o3)ccc2n1` (racemic) [Example 54, rac-N-[2-(1-methylpyrrolidin-2-yl)imidazo[1,2-a]pyridin-6-yl]furo[2,3-c]pyridine-2-carboxamide], the values for the IC50 on MLLT1 and on MLLT3 were 150 to 1500 nM and 1500 to 20000 nM, respectively.

Regarding `CN1CCCC1c1cn2cc(NC(=O)c3ccc4c(c3)c(C3CCNC3)nn4C)ccc2n1` (racemic) [Example 56, rac-1-methyl-N-(2-(1-methylpyrrolidin-2-yl)imidazo[1,2-a]pyridin-6-yl)-3-(pyrrolidin-3-yl)-1H-indazole-5-carboxamide formate], the half-maximal inhibitory concentration (IC50) at MLLT1 and on MLLT3 was 150 to 1500 nM throughout.

`Cc1nn(C)c2cc(C(=O)Nc3cn4cc(C5CCCN5C)nc4cc3F)ccc12` (racemic) [Example 57, rac-N-[7-fluoro-2-(1-methylpyrrolidin-2-yl)imidazo[1,2-a]pyridin-6-yl]-1,3-dimethyl-1H-indazole-6-carboxamide]: the IC50 at MLLT1 is 150 to 1500 nM; on MLLT3 it was 1500 to 20000 nM.

With `COCCN1CCCC1c1cn2cc(NC(=O)c3ccc4c(C)nn(C)c4c3)ccc2n1` (racemic) [Example 62, rac-N-{2-[1-(2-methoxyethyl)pyrrolidin-2-yl]imidazo[1,2-a]pyridin-6-yl}-1,3-dimethyl-1H-indazole-6-carboxamide], the IC50 on MLLT1 and at MLLT3 was 1500 to 20000 nM throughout.

Turning to `CC1CCC(c2cn3cc(NC(=O)c4ccc5c(cnn5C)c4)ccc3n2)N1C` (racemic) [Example 63, rac-N-[2-(1,5-dimethylpyrrolidin-2-yl)imidazo[1,2-a]pyridin-6-yl]-1-methyl-1H-indazole-5-carboxamide], the IC50 on MLLT1 and on MLLT3 was 1500 to 20000 nM in each case.

Turning to `CC1CC(c2cn3cc(NC(=O)c4ccc5c(cnn5C)c4)ccc3n2)N(C)C1` (racemic) [Example 64, rac-N-[2-(1,4-dimethylpyrrolidin-2-yl)imidazo[1,2-a]pyridin-6-yl]-1-methyl-1H-indazole-5-carboxamide], the IC50 on MLLT1 and on MLLT3 was 150 to 1500 nM each time.

On to `COC1CC(c2cn3cc(NC(=O)c4ccc5c(cnn5C)c4)ccc3n2)N(C)C1` (racemic) [Example 65, rac-N-[2-(4-methoxy-1-methylpyrrolidin-2-yl)imidazo[1,2-a]pyridin-6-yl]-1-methyl-1H-indazole-5-carboxamide], for which the values for the IC50 against MLLT1 and on MLLT3 were 150 to 1500 nM and 1500 to 20000 nM, respectively.

On to `CN1CCCC1c1cn2cc(NC(=O)c3ccc4c(cnn4C)c3)ncc2n1` (racemic) [Example 68, rac-1-methyl-N-[2-(1-methylpyrrolidin-2-yl)imidazo[1,2-a]pyrazin-6-yl]-1H-indazole-5-carboxamide], for which the IC50 on MLLT1 and at MLLT3 was 150 to 1500 nM each time.

Regarding `Cc1nn(C)c2cc(C(=O)Nc3cn4cc(C5CC(C(C)(C)C)CN5C)nc4cn3)ccc12` (racemic) [Example 84, rac-N-[2-(4-tert-butyl-1-methylpyrrolidin-2-yl)imidazo[1,2-a]pyrazin-6-yl]-1,3-dimethylindazole-6-carboxamide], the IC50 is less than 150 nM against MLLT1 and 150 to 1500 nM at MLLT3.

Regarding `CN1CCCC1c1cn2cc(NC(=O)c3ccc4cc(F)ccc4c3)ccc2n1` (single isomer, unassigned) [Example 5], the IC50 on MLLT1 and at MLLT3 was 150 to 1500 nM each time.

As for `CN1CCCC1c1cn2cc(NC(=O)c3ccc4cc(F)ccc4c3)ccc2n1` (single isomer, unassigned) [Example 6], the IC50 against MLLT1 and at MLLT3 was 1500 to 20000 nM throughout.

As to `CN1CCCC1c1cn2cc(NC(=O)c3ccc(-c4cncs4)cc3F)ccc2n1` (single isomer, unassigned) [Example 7], the IC50 against MLLT1 and on MLLT3 was 1500 to 20000 nM throughout.

As for `CN1CCCC1c1cn2cc(NC(=O)c3ccc(-c4cncs4)cc3F)ccc2n1` (single isomer, unassigned) [Example 8], the IC50 against MLLT1 and on MLLT3 was 150 to 1500 nM each time.

`CN1CCCC1c1cn2cc(NC(=O)c3ccc(-c4cnccn4)cc3F)ccc2n1` (single isomer, unassigned) [Example 19]: the IC50 at MLLT1 was in the range of 150 to 1500 nM; on MLLT3 it was 1500 to 20000 nM.

As to `CN1CCCC1c1cn2cc(NC(=O)c3ccc(-c4ncccn4)cc3F)ccc2n1` (single isomer, unassigned) [Example 20], the IC50 on MLLT1 and at MLLT3 was 1500 to 20000 nM each time.

Consider `CN1CCCC1c1cn2cc(NC(=O)c3ccc(-c4cnn(C)c4)cc3F)ccc2n1` (single isomer, unassigned) [Example 21], for which the IC50 against MLLT1 and on MLLT3 was 150 to 1500 nM throughout.

For `Cc1ncsc1-c1ccc(C(=O)Nc2ccc3nc(C4CCCN4C)cn3c2)c(F)c1` (single isomer, unassigned) [Example 22], the IC50 at MLLT1 lay within 150 to 1500 nM; on MLLT3 it was 1500 to 20000 nM.

As to `Cc1ncc(-c2ccc(F)c(C(=O)Nc3ccc4nc(C5CCCN5C)cn4c3)c2)s1` (single isomer, unassigned) [Example 23], the half-inhibitory concentration (IC50) against MLLT1 and on MLLT3 was 150 to 1500 nM throughout.
